From patent US11512053B2, “Arginine methyltransferase inhibitors and uses thereof” (priority 2013, dated 2022)
pIC50: −log10 of the molar value. Read-outs that look alike come from different tables or passages of the source.

Assays:
[1] = molecular target: full-length human PRMT1 isoform 1 (GST-tagged) (Homo sapiens, UniProt Q99873); assay: PRMT1 Biochemical Assay (3H-SAM Flashplate, peptide substrate)
Text: General Materials. S-adenosylmethionine (SAM), S-adenosylhomocysteine (SAH), bicine, Tween20, dimethylsulfoxide (DMSO), bovine skin gelatin (BSG), and Tris(2-carboxyethyl)phosphine hydrochloride solution (TCEP) were purchased from Sigma-Aldrich at the highest level of purity possible. ^3H-SAM was purchase from American Radiolabeled Chemicals with a specific activity of 80 Ci/mmol. 384-well streptavidin Flashplates were purchased from PerkinElmer.
Protein Expression. Recombinant baculovirus were generated according to Bac-to-Bac kit instructions (Life Technologies). […] Infections were carried out at 27° C. for 48 hours, harvested by centrifugation, and stored at −80° C. for purification.
Protein Purification. […] GST-tagged PRMT1 was eluted with 50 mM Tris, 2 mM glutathione, pH 7.8, dialysed in buffer A and concentrated to 1 mg/mL.
General Procedure for PRMT1 Enzyme Assays on Peptide Substrates. The assays were all performed in a buffer consisting of 20 mM Bicine (pH=7.6), 1 mM TCEP, 0.005% BSG, and 0.002% Tween 20, prepared on the day of use. […] DMSO (1 ul) was added to Columns 11, 12, 23, 24, rows A-H for the maximum signal control and 1 ul of SAH, a known product and inhibitor of PRMT1, was added to columns 11, 12, 23, 24, rows I-P for the minimum signal control. A cocktail (40 ul) containing the PRMT1 enzyme was added by Multidrop Combi (Thermo-Fisher). The compounds were allowed to incubate with PRMT1 for 30 min at room temperature, then a cocktail (10 ul) containing SAM and peptide was added to initiate the reaction (final volume=51 ul). […] The assays were stopped by the addition of non-radiolabeled SAM (10 ul) to a final concentration of 300 uM, which dilutes the ^3H-SAM to a level where its incorporation into the peptide substrate is no longer detectable. 50 ul of the reaction in the 384-well polypropylene plate was then transferred to a 384-well Flashplate and the biotinylated peptides were allowed to bind to the streptavidin surface for at least 1 hour before being washed once with 0.1% Tween20 in a Biotek ELx405 plate washer. The plates were then read in a PerkinElmer TopCount plate reader to measure the quantity of ^3H-labeled peptide bound to the Flashplate surface, measured as disintegrations per minute (dpm) or alternatively, referred to as counts per minute (cpm).
Where dpm=disintegrations per minute, cmpd=signal in assay well, and min and max are the respective minimum and maximum signal controls.
Where top and bottom are the normally allowed to float, but may be fixed at 100 or 0 respectively in a 3-parameter fit. The Hill Coefficient normally allowed to float but may also be fixed at 1 in a 3-parameter fit. Y is the % inhibition and X is the compound concentration.

[2] = tested on: mono-methyl arginine in RKO cells; assay: RKO Methylation Assay, In Cell Western (ICW) for detection of mono-methyl arginine and DNA content; format: cell-based; settings: Homo sapiens, RKO, 72 h, RKO cells, read-out: In Cell Western EC30
Outline: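 RKO cells were treated with compound for 72 hours at 37 °C, methanol-fixed and stained overnight at 4 °C with anti-mono-methyl arginine (1:200), with DRAQ5 for DNA. Odyssey 800/700 nm intensity ratio was normalized to DMSO and 20 μM reference-compound controls. EC30 from triplicate nine-point curves.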

[3] = single experiment or average of multiple experiments
[4] = 72 hours compound incubation, mono-methyl arginine signal normalised to DNA content (DRAQ5), percent activation vs 20 μM reference compound
[5] = 72 hours incubation, mono-methyl arginine signal normalised to DNA content, single experiment or average of multiple experiments

full-length human PRMT1 isoform 1 (GST-tagged), sequence (Q99873 with tags, fused parts or gaps): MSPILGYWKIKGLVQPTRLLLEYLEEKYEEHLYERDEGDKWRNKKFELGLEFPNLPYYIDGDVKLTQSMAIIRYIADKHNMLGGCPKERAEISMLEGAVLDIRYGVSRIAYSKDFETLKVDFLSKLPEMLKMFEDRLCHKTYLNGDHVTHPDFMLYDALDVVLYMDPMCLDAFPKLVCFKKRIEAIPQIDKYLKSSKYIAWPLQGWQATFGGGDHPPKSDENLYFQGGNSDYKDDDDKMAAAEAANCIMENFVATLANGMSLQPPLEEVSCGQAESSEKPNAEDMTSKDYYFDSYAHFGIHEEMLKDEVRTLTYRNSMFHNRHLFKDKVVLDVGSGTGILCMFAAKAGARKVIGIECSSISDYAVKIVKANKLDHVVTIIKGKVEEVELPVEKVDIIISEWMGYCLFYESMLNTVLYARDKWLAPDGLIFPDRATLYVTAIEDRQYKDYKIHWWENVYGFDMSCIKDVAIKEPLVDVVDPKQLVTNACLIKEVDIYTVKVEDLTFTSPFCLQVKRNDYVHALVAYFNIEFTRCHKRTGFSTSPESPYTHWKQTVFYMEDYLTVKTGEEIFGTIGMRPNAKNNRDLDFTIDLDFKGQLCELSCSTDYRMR

`CNCCN(C)Cc1c[nH]nc1C1CCC(CC(C)C)CC1` (stereo not drawn) [Compound 169] was tested, and the pIC50 [1] was > 7.00, the pIC50 [1, 3] was 8.19 and the EC30 [2, 4] was < 3000 nM. It also gave an EC30 [2, 5] of 16 nM.
`CNCCN(C)Cc1c[nH]nc1C1CCC2(CC1)C(=O)N(C)C(=O)N2C` (stereo not drawn) [Compound 171] was tested, and the pIC50 [1] was > 7.00, the pIC50 [1, 3] was 7.83 and the EC30 [2, 4] was < 3000 nM. The EC30 [2, 5] was 192 nM.
`CNCCN(C)Cc1c[nH]nc1C1CCC2(CC1)CN(C)C(=O)N2C` (stereo not drawn) [Compound 172] was tested, and the pIC50 [1] was > 7.00, the pIC50 [1, 3] was 7.64 and the EC30 [2, 4] was 3010 to 12000 nM. The EC30 [2, 5] was 4460 nM.
For `CNCCN(C)Cc1c[nH]nc1C1=CCC(CCOC)(CCOC)CC1` [Compound 173], the pIC50 [1] was > 7.00, the pIC50 [1, 3] was 7.63 and the EC30 [2, 4] was < 3000 nM. It also gave an EC30 [2, 5] of 408 nM.
For `CNCCN(C)Cc1c[nH]nc1C1CCC(CCOC)(CCOC)CC1` [Compound 174], the pIC50 [1] was > 7.00, the pIC50 [1, 3] was 7.81 and the EC30 [2, 4] was < 3000 nM. The EC30 [2, 5] was 85 nM.
In the case of `CNCCN(C)Cc1c[nH]nc1C1CCC2(CC1)NC(=O)NC2=O` (stereo not drawn) [Compound 175], the pIC50 [1] was > 7.00, the pIC50 [1, 3] was 7.88 and the EC30 [2, 4] was > 12000 nM. For the same molecule, the EC30 [2, 5] was > 20000 nM.
`CNCCN(C)Cc1c[nH]nc1C1CCC2(CCNC2=O)CC1` (stereo not drawn) [Compound 176] was tested, and the pIC50 [1] was > 7.00, the pIC50 [1, 3] was 7.99 and the EC30 [2, 4] was < 3000 nM. The EC30 [2, 5] was 2140 nM.
In the case of `CNCCN(C)Cc1c[nH]nc1C1CCC2(CC1)OCCO2` [Compound 177], the pIC50 [1] was > 7.00, the pIC50 [1, 3] was 7.56 and the EC30 [2, 4] was < 3000 nM. For the same molecule, the EC30 [2, 5] was 571 nM.
For `CNCCN(C)Cc1c[nH]nc1C1CCC2(CCOCC2)CC1` [Compound 178], the pIC50 [1] was > 7.00, the pIC50 [1, 3] was 8.24 and the EC30 [2, 4] was < 3000 nM. For the same molecule, the EC30 [2, 5] was 76 nM.
`CNCCN(C)Cc1c[nH]nc1C1CC(C)OC(C)C1` (stereo not drawn) [Compound 179] was tested, and the pIC50 [1] was > 7.00, the pIC50 [1, 3] was 7.80 and the EC30 [2, 4] was < 3000 nM. The EC30 [2, 5] was 476 nM.
With `CNCCN(C)Cc1c[nH]nc1[C@H]1CC[C@H](C(C)C)CC1` [Compound 180] the pIC50 [1] was > 7.00, the pIC50 [1, 3] was 8.31 and the EC30 [2, 4] was < 3000 nM. It also gave an EC30 [2, 5] of 19 nM.
In the case of `CNCCN(C)Cc1c[nH]nc1[C@H]1CC[C@@H](C(C)C)CC1` [Compound 181], the pIC50 [1] was > 7.00, the pIC50 [1, 3] was 8.33 and the EC30 [2, 4] was < 3000 nM. The EC30 [2, 5] was 107 nM.
`CNCCN(C)Cc1c[nH]nc1C1CCC(O)C2(CCCC2)C1` (stereo not drawn) [Compound 182, 9-[4-({methyl[2-(methylamino)ethyl]amino}methyl)-1H-pyrazol-3-yl]spiro[4.5]decan-6-ol] was tested, and the pIC50 [1] was > 7.00, the pIC50 [1, 3] was 7.94 and the EC30 [2, 4] was < 3000 nM. The EC30 [2, 5] was 411 nM.
In the case of `CNCCN(C)Cc1c[nH]nc1C1CCC(C)(C)C(O)C1` (stereo not drawn) [Compound 185, 2,2-dimethyl-5-[4-({methyl[2-(methylamino)ethyl]amino}methyl)-1H-pyrazol-3-yl]cyclohexan-1-ol], the pIC50 [1] was > 7.00, the pIC50 [1, 3] was 7.85 and the EC30 [2, 4] was < 3000 nM. For the same molecule, the EC30 [2, 5] was 453 nM.
With `CNCCN(C)Cc1c[nH]nc1[C@H]1CC[C@H](OCCOc2ccccc2)CC1` [Compound 187] the pIC50 [1] was 6.00 to 7.00, the pIC50 [1, 3] was 6.71 and the EC30 [2, 4] was 3010 to 12000 nM. It also gave an EC30 [2, 5] of 3160 nM.
